Data reported in patent publication US12281299B2, “Control of nitrogen fixation in rhizobia that associate with cereals” (Massachusetts Institute of Technology, priority 2019, dated 2025).
Structures can show the parent of a compound that is named as a salt.

Each molecule was assayed on R. sp. IRBG74 (assay: Genetic part characterization for Rhizobia (promoters, RBSs, terminators, inducible systems; fluorescence reporter, flow cytometry)). Settings: synthetic RBS strength in R. sp. IRBG74; plasmid pMR-40, IPTG-inducible system, 1 mM IPTG induction.
Assay type: cell-based, Rhizobium sp.
Source text: Construction and characterization genetic parts for Rhizobia. Genetic part libraries were built on a pBBR1-ori plasmid pMR-1 using Gibson assembly (New England Biolabs, Cat # E2611). The fluorescence proteins, GFPmut3b and mRFP1 were used as reporters. The Anderson promoter library (Anderson, J. et al. BglBricks: A flexible standard for biological part assembly. 4, 1 (2010)) on the BioBricks Registry were utilized for the characterization of constitutive promoters (FIGS. 11A-11C). To characterize inducible promoters, a regulator protein is constitutively expressed by the PlacIq promoter, and GFP expression is driven by a cognate inducible promoter from the opposite direction, facilitating replacement of the reporter with gene of interest (e.g., T7 RNAP and nifA) and transfer of the controller unit across different plasmid backbones for diverse microbes. The following combinations of cognate regulators and inducible promoters were characterized. IPTG inducible LacI-A1lacO1, DAPG inducible PhlF-PPhl, aTc inducible TetR-PTet, 3OC6HSL inducible LuxR-PLux, salicylic acid inducible NahR-PSal, and cuminic acid inducible CymR-PCym systems were optimized for R. sp. IRBG74 (FIG. 14). Opine inducible OccR-Pocc, and nopaline inducible NocR-Pnoc systems were optimized for A. caulinodans (FIGS. 20A-20F and Tables 9 and 10). For RBS characterization, an IPTG-inducible GFP expression plasmid pMR-40 was used and GFP was expressed to the highest levels with 1 mM IPTG (FIGS. 12A-12B). RBS library for GFP was designed using the RBS library calculator at the highest-resolution mode, and the 3′ end of the 16S rRNA sequences were adjusted according to the species (3′-ACCTCCTTC-5′ for R. sp. IRBG74). Terminators for T7 RNAP were characterized by placing a terminator between two fluorescence reporters expressed from a single T7 wild-type promoter located upstream of the first fluorescence protein GFP. The expression of the two fluorescence proteins is enabled by the controller strain MR18 encoding the IPTG-inducible T7 RNAP system by 1 mM IPTG (FIGS. 13A-13B). The terminator strength (Ts) was determined by normalizing fluorescence levels of a terminator construct by a reference construct pMR-66 where a 40 bp spacer was placed between the reporters. All genetic parts for Rhizobia were characterized as follows.

Row | Molecule | Strength (GFP, au) [au]
1 | RB5r1 (DNA ATTTCACACATCTAGAGCTAATCATCTCGTACTAAAGAGGAGAAATTAACCATG; chemistry not fully specified) | 8242
2 | RB5r2 (DNA ATTTCACACATCTAGAGCTAATCATCGCGTACTCAGGAGGCAAGTAATG; chemistry not fully specified) | 7181.5
3 | RB5r3 (DNA ATTTCACACATCTAGAATTAAAGAGGAGAAATTAACCATG; chemistry not fully specified) | 6238.5
4 | RB5r4 (DNA TAACAATTTCACACATCTAGAGCTAATCATCTCGTACTAAAGAGGCAAGTAATG; chemistry not fully specified) | 3618
5 | RB5r5 (DNA TAACAATTTCACACATCTAGAGCTAATCATCGCGTACTAAGGAGGCAAGTAATG; chemistry not fully specified) | 3560
6 | RB5r6 (DNA TAACAATTTCACACATCTAGAGCTAATCATCGCGTACTCAAGAGGCAAGTAATG; chemistry not fully specified) | 2614.5
7 | RB5r7 (DNA TAACAATTTCACACATCTAGAGCTAATCTTCGCGTACTAAAGAGGCAAGTAATG; chemistry not fully specified) | 2418.5
8 | RB5r8 (DNA TAACAATTTCACACATCTAGAGCTAATCATCTCGTACTCAGGAGGCAAGTAATG; chemistry not fully specified) | 1882.5
9 | RB5r9 (DNA TAACAATTTCACACATCTAGAGCTAATCATCTCGTACTAATGAGGCAAGTAATG; chemistry not fully specified) | 1593.5
10 | RBST-10 (DNA TAACAATTTCACACATCTAGAGCTAATCATCGCGTACTAATGAGGCAAGTAATG; chemistry not fully specified) | 1590
11 | RBST-11 (DNA TAACAATTTCACACATCTAGAGCTAATCATCGCGTACTCACGAGGCAAGTAATG; chemistry not fully specified) | 1554

These molecules were tested on P. protegens Pf-5 (assay: Genetic part characterization for P. protegens (promoters, RBSs, terminators, inducible systems; fluorescence reporter, flow cytometry)). Settings: P. protegens Pf-5, pRO1600 plasmid.
Assay type: cell-based, Pseudomonas protegens
Source text: Construction and characterization genetic parts for P. protegens. Genetic part libraries were built on a pRO1600-ori plasmid pMR-2 using Gibson assembly (New England Biolabs, Cat # E2611). The fluorescence proteins, GFPmut3b and mRFP1 were used as reporters. The Anderson promoter library on the BioBricks Registry were utilized for the characterization of constitutive promoters (FIGS. 11A-11C). The following combinations of cognate regulators and inducible promoters were characterized. IPTG inducible LacI-Ptac, DAPG inducible PhlF-PPhl, aTc inducible TetR-PTet, 3OC6HSL inducible LuxR-PLux, arabinose inducible AraC-PBAD, cuminic acid inducible CymR-PCym, and naringenin inducible FdeR-PFde were optimized (FIGS. 15A-15C). […] RBS library for GFP was designed using the RBS library calculator at the highest-resolution mode, and the 3′ end of the 16S rRNA sequences were adjusted according to the species (3′-ACCTCCTTA-5′ for P. protegens Pf-5). Terminators for T7 RNAP were characterized by placing a terminator between two fluorescence reporters expressed from a single T7 wild-type promoter located upstream of the first fluorescence protein GFP. The expression of the two fluorescence proteins is enabled by an IPTG-inducible T7 RNAP expression system of the controller strain MR7 (FIGS. 13A-13B). All genetic parts for P. protegens Pf-5 were characterized as follows.

Row | Molecule | function of inducible system
12 | CCCC(=O)CC(=O)N[C@H]1CCOC1=O [3OC6HSL, N-(3-Oxohexanoyl)-L-homoserine lactone, reference compound] | functional
13 | Cc1c2c(c(O)c3c(O)cccc13)C(=O)[C@]1(O)C(=O)C(C(N)=O)=C(O)[C@@H](N(C)C)[C@@H]1C2 [aTc, Anhydrotetracycline hydrochloride, reference compound] | functional
14 | CC(C)c1ccc(C(=O)O)cc1 [cuminic acid, Cuminic acid, reference compound] | functional
15 | O=C1C[C@@H](c2ccc(O)cc2)Oc2cc(O)cc(O)c21 [naringenin, Naringenin, reference compound] | functional

Same assay, conditions: synthetic RBS strength in P. protegens Pf-5; plasmid pMR-65, arabinose-inducible system, 7 μM arabinose induction

Row | Molecule | Strength (GFP, au) [au]
16 | R135132 (DNA CTAGCGAAGGTCCAACGTTTTTCTAAGCAAGGAGGTCATATG; chemistry not fully specified) | 21590
17 | R135133 (DNA CTAGCGAAGGTCCAACGTTTTTCTAAGCCAGGAGGTCATATG; chemistry not fully specified) | 19690
18 | R135135 (DNA CTAGCGAAGCTCCAACGTTTTTCTAAGCAAGGAGGTCATATG; chemistry not fully specified) | 17990
19 | RBSp1 (DNA CTAGCGCAGGTCCAACGTTTTTCTAAGCAAGGAGGTCATATG; expressed or natural sequence) | 25090
20 | RBSp4 (DNA CTAGCGCAGGTCCAACGTTTTTCTAAGCCAGGAGGTCATATG; expressed or natural sequence) | 19490
21 | RBSp6 (DNA GAATTCTACACTAACGGACAGGAGGGTCCGATG; expressed or natural sequence) | 14490
22 | RBSp7 (DNA GAATTCTAAACTAACGGACAGGAGGGTCCGATG; expressed or natural sequence) | 13390
23 | RBSp8 (DNA GAATTCTAAGCTAACGGACAGGAGGGTCCGATG; expressed or natural sequence) | 12790
24 | RBSp9 (DNA GAATTCTTAACTAACGGACAGGAGGGTCCGATG; expressed or natural sequence) | 11490
25 | RBSp10 (DNA GAATTCTACACTAACGGACAGGAGGGTCGGATG; expressed or natural sequence) | 11090
26 | RBSp11 (DNA GAATTCTACGCTAACGGACAGGAGGGTCCGATG; expressed or natural sequence) | 10390
27 | RBSp12 (DNA GAATTCTCAACTAACGGACAGGAGGGTCCGATG; expressed or natural sequence) | 9590
28 | RBSp13 (DNA GAATTCTAAGCTAACGGACAGGAGGGTCGGATG; expressed or natural sequence) | 8918
29 | RBSp14 (DNA GAATTCTCAGCTAACGGACAGGAGGGTCCGATG; expressed or natural sequence) | 8766
30 | RBSp15 (DNA GAATTCTCAACTAACGGACAGGAGGGTCCGATG; expressed or natural sequence) | 7596
31 | RBSp16 (DNA GAATTCTACGCTAACGGACAGGAGGGTCGGATG; expressed or natural sequence) | 6055
32 | RBSp17 (DNA GAATTCTCAACTAACGGACAGGAGATATACATATG; expressed or natural sequence) | 5939
33 | RBSp18 (DNA GAATTCTCAGCTAACGGACAGGAGGGTCGGATG; expressed or natural sequence) | 5915
34 | RBSp19 (DNA GAATTCTAAACTAACGGACAGGAGGGTCGGATG; expressed or natural sequence) | 4867
35 | RBSp20 (DNA GAATTCTCAGCTCACGGACAGGAGGGTCGGATG; expressed or natural sequence) | 4426
36 | RBSp21 (DNA GAATTCTCAACTAACGGACAGGAGGGTCGGGATG; expressed or natural sequence) | 4110
37 | RBSp22 (DNA GAATTCTACACTCACGGACAGGAGGGTCGGATG; expressed or natural sequence) | 3977
38 | RBSp23 (DNA GAATTCTAAGCTCACGGACAGGAGGGTCGGATG; expressed or natural sequence) | 3829
39 | RBSp24 (DNA GAATTCTCAACTCACGGACAGGAGGGTCGGATG; expressed or natural sequence) | 3661
40 | RBSp25 (DNA GAATTCTACACTAACGGACAGCAGGGTCGGATG; expressed or natural sequence) | 3542
41 | RBSp27 (DNA GAATTCTCAGCTAACGGACAGCAGGGTCGGATG; expressed or natural sequence) | 1265
42 | RBSp28 (DNA CTAGCGCAGGTCCAACCTTTTTCTAAGCAACTAGGTCATATG; expressed or natural sequence) | 389
43 | RBSp29 (DNA CTAGCGAAGGTCCAACCTTTTTCTAAGCCAGTAGGTCATATG; expressed or natural sequence) | 377
44 | RBSp30 (DNA GAATTCTACGCTCACGGACAGCAGGGTCGGATG; expressed or natural sequence) | 221
45 | RBSp31 (DNA GAATTCTCCGCTCACGGACAGGAGGGTCCGATG; expressed or natural sequence) | 23.3
